In patent publication US20140274881A1, “BIODEGRADABLE THERAPEUTIC NANOPARTICLES CONTAINING AN ANTIMICROBIAL AGENT” (CAROLINAS HEALTHCARE SYSTEM, priority 2008, published 2014):

How the values were obtained:
[1] = In vitro drug release by dialysis method under sink conditions; format: physicochemical; settings: nafcillin-PBS solution without polymer nanoparticles in dialysis bag, 37° C.
Excerpt: A dialysis method was used in the measurement of in vitro drug release. Drug release studies were done under sink conditions; the volume of the buffer was kept large (outer sink) compared to the volume of drug-loaded nanoparticles suspension in the dialysis bag. The (theoretical) situation of infinite dilution is known as a perfect sink; however, even though perfect sink conditions are never attainable in practice, they are the only situation in which a true release profile can be measured. For a given matrix volume, an increase in liquid volume or volume ratio will promote drug release due to the lower drug concentrations in the medium. The system developed was continuously agitated, resulting in the faster diffusion of drug through the dialysis membrane to the outer sink. FIG. 9A is a plot of cumulative drug release (%) versus time in hours, for release of nafcillin from nafcillin-PBS solution loaded in a dialysis bag with a molecular weight cut-off of 6 kDa at 37° C. FIG. 9B is a plot of cumulative drug release (%) versus time in hours for release of nafcillin from nafcillin-PBS solution loaded in a dialysis bag with a molecular weight cut-off of 12-14 kDa at 37° C. The release of nafcillin from nafcillin-PBS solution without polymer nanoparticles was rapid, since 97% of the drug was released within the first nine (9) hours. […]

[2] = system: intracellular S. aureus; experiment: Viability of intracellular S. aureus in infected osteoblasts treated with nanoparticles; format: cell-based, Staphylococcus aureus; settings: nafcillin alone, no nanoparticles
Experimental: The viability of intracellular S. aureus following treatment with nanoparticles was determined. S. aureus was allowed to infect cultured primary mouse osteoblasts as described herein, followed by removal and killing of all remaining extracellular bacteria in culture. […] None of the nanoparticle preparations had any effect on osteoblast viability. All loaded formulations of particles caused a significant decrease in the viability of intracellular S. aureus inside infected osteoblasts at both 24 and 48 hours.
FIG. 11 is a bar graph showing viability of intracellular S. aureus in osteoblasts treated with nanoparticles or nanoparticles loaded with nafcillin. Primary mouse osteoblasts were infected intracellularly with S. aureus and were subsequently treated with unloaded nanoparticles (G1 and G2) or nanoparticles loaded with nafcillin (G1.1, 1.2, 2.1 and 2.2) for 1 (0 hour), 24 and 48 hours. Osteoblasts were subsequently lysed following these time intervals with a solution containing 0.1% triton X-100, and serial dilutions of the lysates were plated on tryptic soy agar (TSA). Following an overnight incubation at 37° C., numbers of viable bacteria were enumerated, *, P<0.05 versus S. aureus-treated osteoblasts at the same time point. […]
Following resuspension in OBGM, bacterial cell density is determined via spectrophotometric analysis. […]

CCOc1ccc2ccccc2c1C(=O)N[C@@H]1C(=O)N2[C@@H]1SC(C)(C)[C@@H]2C(=O)O [nafcillin, Nafcillin]
cumulative drug release within the first nine (9) hours [1]: 97%
viability of intracellular S. aureus, compared with untreated infected osteoblasts [2]: indistinguishable from untreated S. aureus-infected osteoblasts
